Assay results from patent US7026347B2, “Porphyrin-polyamine conjugates for cancer therapy” (CellGate, Inc., priority 2002, dated 2006).

Legend:
Format in all cases: cell-based
[1] = tested on: DuPro human prostate tumor cells; assay: MTT assay, human prostate tumor cell growth, DuPro; details: 144 h, MTT six days after drug treatment, read-out: ID50 (μM) values for Human prostate tumor Cell Lines DuPro
Description: (§1) A conventional MTT assay was used to evaluate percent cell survival. Exponentially growing monolayer cells were plated in 96-well plates at a density of 500 cells per well and allowed to grow for 24 hours. Serial dilutions of the drugs were added to the wells. Six days after drug treatment, 25 μl of MTT solution (5 mg/ml) was added to each well and incubated for 4 hours at 37° C. Then 100 μl of lysis buffer (20% sodium dodecyl sulfate, 50% DMF, and 0.8% acetic acid, pH 4.7) was added to each well and incubated for an additional 22 hours. A microplate reader (“EMAX”-brand, Molecular Devices, Sunnyvale, Calif.) set at 570 nm was used to determine the optical density of the cultures. Results are expressed as a ratio of the optical density in drug-treated wells to the optical density in wells treated with vehicle only. FIGS. 1–13 also indicate the effects of the compounds on various cell lines.

[2] = tested on: PC-3 human prostate tumor cells; assay: MTT assay, human prostate tumor cell growth, PC-3; details: 144 h, PC-3 cells, MTT six days after drug treatment, read-out: ID50 (μM) values for Human prostate tumor Cell Lines PC-3
Description: as §1

[3] = tested on: BxPC-3 human pancreatic cancer cells; assay: MTT assay, human pancreatic cancer cell growth, BxPC-3; details: 144 h, BxPC-3 cells, MTT six days after drug treatment, read-out: ID50(μM) values for Human Pancreatic Cancer Cell Lines BxPC-3
Description: as §1

[4] = tested on: Panc-1 human pancreatic cancer cells; assay: MTT assay, human pancreatic cancer cell growth, Panc-1; details: 144 h, Panc-1 cells, MTT six days after drug treatment, read-out: ID50(μM) values for Human Pancreatic Cancer Cell Lines Panc-1
Description: as §1

[5] = tested on: Human Brain Tumor Cells U251MG NCI; assay: MTT assay, human brain tumor cell growth, U251MG NCI; details: U-251, 144 h, MTT six days after drug treatment, read-out: ID50(μM) values for Human Brain Tumor Cells U251MG NCI
Description: as §1

[6] = tested on: Tsu-pr1 human prostate tumor cells; assay: MTT assay, human prostate tumor cell growth, Tsu-pr1; details: 144 h, MTT six days after drug treatment, read-out: ID50 (μM) values for Human prostate tumor Cell Lines Tsu-pr1
Description: as §1

[7] = tested on: Tsu-pr1-ADR human prostate tumor cells; assay: MTT assay, human prostate tumor cell growth, Tsu-pr1-ADR; details: 144 h, MTT six days after drug treatment, read-out: ID50 (μM) values for Human prostate tumor Cell Lines Tsu-pr1-ADR
Description: as §1

| SMILES | IC50 [1] [µM] | IC50 [2] [µM] | IC50 [3] [µM] | IC50 [4] [µM] | IC50 [5] [µM] | IC50 [6] [µM] | IC50 [7] [µM] |
| --- | --- | --- | --- | --- | --- | --- | --- |
| CCNCCCCNCC1CC1CNCCCCN(CC)C(=O)CCC1=C(C)c2cc3[nH]c(cc4nc(cc5[nH]c(cc1n2)c(CCC(=O)N(CC)CCCCNCC1CC1CNCCCCNCC)c5C)C(CC)=C4C)c(CC)c3C (stereo not drawn) [SL-11217] | 3.6 | 2.8 | 6.87 | 6.38 | 5.65 |  |  |
| CCCCCCCCCCCCCC1CCN(CCCNC(=O)CCC2=C(C)c3cc4[nH]c(cc5nc(cc6[nH]c(cc2n3)c(CCC(=O)NCCCN2CCCN(C)CCCCN(C)CCCN(C)C(CCCCCCCCCCCCC)CC2)c6C)C(CC)=C5C)c(CC)c4C)CCCN(C)CCCCN(C)CCCN1C (stereo not drawn) [SL-11237] | 1.9 | 1.7 | 5.92 | 12.5 | 2.3 | 1.87 | 12.6 |
